Measurements from paper PMC8582824, “Targeting DDX3X Helicase Activity with BA103 Shows Promising Therapeutic Effects in Preclinical Glioblastoma Models” (Cancers, 2021).

What was measured:
DDX3X helicase activity = molecular target: T1, DDX3X helicase activity (Homo sapiens, UniProt O00571); assay: FRET-based DDX3X helicase assay; assay type: biochemical; details: for IC50: FRET helicase assay, recombinant DDX3X, read-out: IC50 ± SD, DDX3X anti-enzymatic (helicase) activity
T1 construct: Recombinant his-tagged human full length DDX3X; His tag; made in house; host or cells: ShuffleT7 E. coli
T1 sequence (O00571 whole entry): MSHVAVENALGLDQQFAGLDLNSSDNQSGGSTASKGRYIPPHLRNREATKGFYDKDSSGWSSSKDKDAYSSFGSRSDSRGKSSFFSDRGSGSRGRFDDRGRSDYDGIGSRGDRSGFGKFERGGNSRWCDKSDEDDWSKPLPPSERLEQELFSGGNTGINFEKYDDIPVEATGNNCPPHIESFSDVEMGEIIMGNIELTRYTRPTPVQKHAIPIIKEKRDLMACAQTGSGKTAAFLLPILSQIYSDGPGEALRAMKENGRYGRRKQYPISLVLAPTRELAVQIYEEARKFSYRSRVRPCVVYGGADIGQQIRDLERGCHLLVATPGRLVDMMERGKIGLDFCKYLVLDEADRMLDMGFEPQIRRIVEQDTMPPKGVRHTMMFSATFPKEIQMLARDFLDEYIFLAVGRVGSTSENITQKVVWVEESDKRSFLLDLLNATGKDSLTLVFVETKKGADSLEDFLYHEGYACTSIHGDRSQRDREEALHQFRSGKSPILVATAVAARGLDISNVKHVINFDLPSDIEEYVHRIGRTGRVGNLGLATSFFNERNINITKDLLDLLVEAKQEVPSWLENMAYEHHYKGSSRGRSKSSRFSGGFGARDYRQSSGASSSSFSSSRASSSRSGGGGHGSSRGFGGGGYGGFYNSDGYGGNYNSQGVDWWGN
Experimental: Recombinant his-tagged human full length DDX3X cloned the E. coli expression vector pET-30a(+). ShuffleT7 E. coli cells were transformed with the plasmid and grown at 37 °C up to OD600 = 0.7. DDX3X expression was induced with 0.5 mM IPTG at 15 °C O/N. Cells were harvested by centrifugation, lysed, and the crude extract was centrifuged at 100,000 g for 60 min at 4 °C in a Beckman centrifuge before being loaded onto a FPLC Ni-NTA column (GE Healthcare, Chicago, IL, USA). The column was equilibrated in Buffer A (50 mM Tris-HCl pH 8.0, 250 mM NaCl, 25 mM Imidazole and 20% glycerol). After extensive washing in Buffer A, the column was eluted with a linear gradient in Buffer A from 25 to 250 mM Imidazole. Proteins in the eluted fractions were visualized on SDS-PAGE and tested for the presence of DDX3X by Western blot with anti-DDX3X A300-475A (Bethyl Laboratories, Montgomery, TX, USA) at 1:4000 dilution in 5% milk. Fractions containing the purest DDX3X protein were pooled and stored at −80 °C.
The dsRNA substrate for the helicase assay was prepared by hybridizing two ss RNA oligonucleotides with the following sequences: • Fluo-FAM 5′ […] 3′ • Qu-BHQ1 5′ […] 3′ • DNA capture 5′ […] 3′.
The sequence in Fluo-FAM complementary to Qu-BHQ1 is underlined. Fluo-FAM carries a 6-carboxyfluorescein fluorophore at its 3′ end, while Qu-BHQ1 carries a Black Hole quencher group at its 5′ end. The DNA capture oligonucleotide is complementary to the Qu-BHQ1 oligonucleotide, but it bears no modifications. A helicase assay using the dsRNA substrate was performed in 20 mM TrisHCl (pH 8), 70 mM KCl, 2 mM MgCl2, 2 mM dithiothreititol, 12 units RNasin (Promega), 2 mM ATP, 50 nM dsRNA, and 100 nM capture strand in 20 μL of reaction volume. The unwinding reaction was started by adding 60 pmols of DDX3X recombinant protein and carried out at 37 °C for 40 min using a LightCycler 480 (Roche, Basel, Switzerland). The fluorescence intensity was recorded every 30 s. Values of fluorescence signal in the presence or in the absence of inhibitor molecules were analyzed by linear interpolation, and the corresponding slope values were used to determine the apparent unwinding rate.
The IC50 values have been calculated from dose–response curves. Data (in triplicate) were plotted and analyzed by least-squares nonlinear regression, according to the method of Marquardt–Levenberg, with the computer program GraphPad Prism 6.0. Data were fitted to the following equation:Eobs = Emax/(1 + (IC50/[I])^n)(1) where E(obs) is the observed enzymatic activity in the presence of each inhibitor dose [I]; E(max) is the maximal enzymatic activity in the absence of the inhibitor; and n is an exponential term to take into account sigmoidal dose–response curves.
All the compounds were tested for their ability to inhibit the helicase activity of DDX3X using a fluorescence resonance energy transfer (FRET)-based assay, as previously described. Values of fluorescence signal in the presence or in the absence of inhibitor molecules were analyzed by linear interpolation (for details, see Methods 2.3.2).

U251 cells = assay: MTS cytotoxicity assay, U251 cells; assay type: cell-based; details: 72 h
Experimental: (§1) For CellTiter 96® Aqueous One Solution Cell Proliferation Assay (MTS) (Promega, Madison, WI, USA), cells were seeded at 5 × 10^3 per well in 96-well plates in quadruplicate together a control with no cells to evaluate the background. After 24 h, the culture medium was removed, and fresh medium containing increasing concentrations of chemical compounds was added to cells. […] DMSO was the vehicle used for dilution of the compounds, and its final concentration on cells was less than 0.2%. Medium-only containing wells were included as controls. Cells were incubated with compounds at different concentrations for 72 h, then, 20 µL of CellTiter 96® AQueous One Solution Reagent was added into each well. After 3 h at 37 °C in a humidified, 5% CO2 atmosphere, the absorbance at 492 nm was recorded using an EZREAD400 (Biochrom, Cambridge, United Kingdom) plate reader. The average 490 nm absorbance from the “no cell” control wells was subtracted from all other values to yield background-corrected absorbance. Dose–response curves and CC50 values have been calculated by plotting the absorbance data as a function of inhibitor concentrations and fitting the data by least-squares nonlinear regression, according to the method of Marquardt–Levenberg, with the computer program GraphPad Prism 6.0.
(§2) Cells were incubated with a scalar concentration of DDX3X inhibitors, and after 72 h of treatment, cell viability was assessed by cytotoxicity assay. […] Compounds 4, 6, and BA103 were also evaluated against BJ primary fibroblasts; compound 4 has a cytotoxicity value of 84.7 μM; on the contrary, compounds 6 and BA103 were not toxic up to 200 μM concentration. This further excluded a possible nonspecific cytotoxic effect. […] Due to its interesting profile, compound BA103 was further tested against additional pulmonary (A549), breast (MDA-MB-231), colorectal (HCT-116), osteosarcoma (U2OS), rhabdomyosarcoma (RD18), GBM (DBTRG, U87, and U251) and medulloblastoma (DAOY) cancer cell lines.
(§3) Figure 5 Cytotoxicity of selected compounds. Compounds were assayed on DU-145, PC3, HepG2, Huh-7, HN6, U251, and U87 cell lines. The concentration of the compound, which reduced the number of viable cells by 50% (CC50), was determined by dose–response curve, and the mean CC50 value for each cell line was calculated by triplicate assays (raw data from U87 and U251 cells with dose–response curves used for the calculation of CC50 in Table S1 and Figure S2).
(§4) Table S1: Raw data of optical absorbance at 490 nm from MTS assay in U87 and U251 cells. Tables contain
(§5) means with SD of at least 5 different values that were used for preparation of figure 5.

[1] = test system: panel of cancer cell lines (Du-145, PC3, HepG2, Huh-7, HN6, U87 and U231); assay: Cytotoxicity screen on panel of cancer cell lines; assay type: cell-based; details: 72 h of treatment
Experimental: For CellTiter 96® Aqueous One Solution Cell Proliferation Assay (MTS) (Promega, Madison, WI, USA), cells were seeded at 5 × 10^3 per well in 96-well plates in quadruplicate together a control with no cells to evaluate the background. After 24 h, the culture medium was removed, and fresh medium containing increasing concentrations of chemical compounds was added to cells. The fixed final concentrations were 0.1 μM, 1 μM, 10 μM, and 100 μM. DMSO was the vehicle used for dilution of the compounds, and its final concentration on cells was less than 0.2%. Medium-only containing wells were included as controls. […] After 3 h at 37 °C in a humidified, 5% CO2 atmosphere, the absorbance at 492 nm was recorded using an EZREAD400 (Biochrom, Cambridge, United Kingdom) plate reader. The average 490 nm absorbance from the “no cell” control wells was subtracted from all other values to yield background-corrected absorbance. Dose–response curves and CC50 values have been calculated by plotting the absorbance data as a function of inhibitor concentrations and fitting the data by least-squares nonlinear regression, according to the method of Marquardt–Levenberg, with the computer program GraphPad Prism 6.0.
Cells were incubated with a scalar concentration of DDX3X inhibitors, and after 72 h of treatment, cell viability was assessed by cytotoxicity assay. […]

U87 cells = assay: MTS cytotoxicity assay, U87 cells; assay type: cell-based; details: 72 h
Experimental: as §1, §2, §3, §4, §5

Q: CCCCc1cc(-c2ccc(NC(=O)Nc3ccccc3C(F)(F)F)cc2)no1 [Compound 2, 1-(4-(5-Butylisoxazol-3-yl)phenyl)-3-(2-(trifluoromethyl)phenyl)urea] was tested. Which “solubility in assay medium” value (DDX3X helicase activity; during the enzymatic assay) did it give?
A: The value was “precipitated from medium”.

Q: With CCCCn1nnc(-c2ccc(NC(=O)Nc3ccccc3C)cc2)n1 [Compound 5, 1-(4-(2-Butyl-2H-tetrazol-5-yl)phenyl)-3-(o-tolyl)urea] as the compound, how does the “times less active than hit compound 1 (loss of activity)” value (DDX3X helicase activity; DDX3X helicase inhibition relative to compound 1) read?
A: Its value is 16 times.

Q: What does the source list for CCCCc1nnc(-c2ccc(NC(=O)Nc3ccccc3C(F)(F)F)cc2)s1 [Compound 8, 1-(4-(5-Butyl-1,3,4-thiadiazol-2-yl)phenyl)-3-(2-(trifluoromethyl)phenyl)urea]?
A: mean absorbance at 490 nm (MTS) (U251 cells; U251, 0,01 uM): 2,363; mean absorbance at 490 nm (MTS) (U251 cells; U251, 0,1 uM): 2,282; mean absorbance at 490 nm (MTS) (U251 cells; U251, 1 uM): 2,177; mean absorbance at 490 nm (MTS) (U251 cells; U251, 10 uM): 1,806; mean absorbance at 490 nm (MTS) (U251 cells; U251, 100 uM): 0,786; growth inhibition in all the cell lines tested [1]: poorly effective against all the cell lines tested; IC50 (DDX3X helicase activity): 50000 ± 7000 nM; mean absorbance at 490 nm (MTS) (U87 cells; U87, 0,01 uM): 2,267; mean absorbance at 490 nm (MTS) (U87 cells; U87, 0,1 uM): 1,994; mean absorbance at 490 nm (MTS) (U87 cells; U87, 1 uM): 1,965; mean absorbance at 490 nm (MTS) (U87 cells; U87, 10 uM): 1,945; mean absorbance at 490 nm (MTS) (U87 cells; U87, 100 uM): 1,054

Q: Which IC50 (DDX3X helicase activity) does the source give for “1-(4-(4-Butyl-1H-1,2,3-triazol-1-yl)phenyl)-3-(4-methylpyridin-3-yl)urea [Compound 14]” here?
A: The IC50 was 2000 ± 300 nM.

Q: With CC(C)CCc1cn(-c2ccc(NC(=O)Nc3ccccc3C(F)(F)F)cn2)nn1 [Compound 9, 1-(6-(4-Isopentyl-1H-1,2,3-triazol-1-yl)pyridin-3-yl)-3-(2-(trifluoromethyl)phenyl)urea] as the compound, how does the IC50 (DDX3X helicase activity) read?
A: Its IC50 is 1100 ± 200 nM.

Q: Which IC50 (DDX3X helicase activity) does the source give for “1-(4-(4-Isopentyl-1H-1,2,3-triazol-1-yl)phenyl)-3-(4-methylpyridin-3-yl)urea [Compound 13]” here?
A: The IC50 was 1500 ± 300 nM.
